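These data come from cells grown in 96-well plates and exposed to compound for 48 hours at five concentrations. TGI is the concentration that stops growth completely.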
Tests used:
Assay in all cases: inhibition of tumour cell growth, NCI panel, 48 h
[1] = tested on: UACC-257 melanoma
[2] = tested on: HT29 colon
[3] = tested on: SN12C renal
[4] = tested on: EKVX NSCLC
[5] = tested on: SK-MEL-2 melanoma
[6] = tested on: A498 renal
[7] = tested on: HCT-15 colon
[8] = tested on: ACHN renal
[9] = tested on: SF-268 CNS
[10] = tested on: T-47D breast
[11] = tested on: MCF7 breast
[12] = tested on: U251 CNS
[13] = tested on: BT-549 breast
[14] = tested on: MOLT-4 leukemia
[15] = tested on: HOP-62 NSCLC
[16] = tested on: M14 melanoma
[17] = tested on: SNB-19 CNS
[18] = tested on: SF-539 CNS
[19] = tested on: SW-620 colon
[20] = tested on: MDA-N
[21] = tested on: NCI-H460 lung
[22] = tested on: LOX IMVI melanoma
[23] = tested on: MDA-MB-435
[24] = tested on: HCC-2998 colon
[25] = tested on: OVCAR-5 ovarian
[26] = tested on: UO-31 renal
[27] = tested on: NCI-H23 lung
[28] = tested on: SR leukemia
[29] = tested on: SF-295 CNS
[30] = tested on: OVCAR-3 ovarian
[31] = tested on: MALME-3M melanoma
[32] = tested on: COLO 205 colon
[33] = tested on: TK-10 renal
[34] = tested on: K-562 leukemia
[35] = tested on: CCRF-CEM leukemia
[36] = tested on: MDA-MB-231 breast
[37] = tested on: SK-OV-3 ovarian
[38] = tested on: RXF 393 renal
[39] = tested on: HCT-116 colon
[40] = tested on: PC-3 prostate
[41] = tested on: HOP-92 NSCLC
[42] = tested on: HS 578T breast
[43] = tested on: SK-MEL-28 melanoma
[44] = tested on: IGROV1 ovarian
[45] = tested on: DU-145 prostate
[46] = tested on: HL-60(TB) leukemia
[47] = tested on: NCI-H522 lung
[48] = tested on: RPMI-8226 leukemia
[49] = tested on: KM12 colon
[50] = tested on: UACC-62 melanoma
[51] = tested on: NCI-H226 lung
[52] = tested on: CAKI-1 renal
[53] = tested on: A549 NSCLC
[54] = tested on: OVCAR-8 ovarian
[55] = tested on: 786-0 renal
[56] = tested on: OVCAR-4 ovarian
[57] = tested on: SK-MEL-5 melanoma
[58] = tested on: SNB-75 CNS

For `CCOC(=O)C1=C(c2ccccc2)C12N(Cc1ccccc1)C(=O)C2(c1ccccc1)c1ccccc1` (stereo not drawn), which TGI [1] is on record?
Its TGI is greater than 100 µM.

And the TGI [2]?
The TGI was greater than 100 µM.

What about the TGI [3] of the same compound?
The TGI was greater than 100 µM.

What about the TGI [4] of the same compound?
The TGI was greater than 100 µM.

And the TGI [5]?
The TGI was 80 µM.

What about the TGI [6] of the same compound?
Its TGI is 90.9 µM.

What about the TGI [7] of the same compound?
The TGI was greater than 100 µM.

And the TGI [8]?
The TGI was greater than 100 µM.

And the TGI [9]?
The TGI was greater than 100 µM.

What about the TGI [10] of the same compound?
The TGI was greater than 100 µM.

And the TGI [11]?
The TGI was greater than 100 µM.

And the TGI [12]?
Its TGI is greater than 100 µM.

And the TGI [13]?
The TGI was greater than 100 µM.

What about the TGI [14] of the same compound?
Its TGI is greater than 100 µM.

And the TGI [15]?
Its TGI is greater than 100 µM.

And the TGI [16]?
Its TGI is greater than 100 µM.

What about the TGI [17] of the same compound?
Its TGI is greater than 100 µM.

And the TGI [18]?
Its TGI is greater than 100 µM.

What about the TGI [19] of the same compound?
Its TGI is greater than 100 µM.

And the TGI [20]?
Its TGI is greater than 100 µM.

And the TGI [21]?
The TGI was greater than 100 µM.

What about the TGI [22] of the same compound?
Its TGI is greater than 100 µM.

And the TGI [23]?
Its TGI is greater than 100 µM.

What about the TGI [24] of the same compound?
Its TGI is 90.3 µM.

And the TGI [25]?
The TGI was greater than 100 µM.

And the TGI [26]?
The TGI was greater than 100 µM.

And the TGI [27]?
The TGI was greater than 100 µM.

What about the TGI [28] of the same compound?
The TGI was greater than 100 µM.

What about the TGI [29] of the same compound?
Its TGI is greater than 100 µM.

And the TGI [30]?
Its TGI is greater than 100 µM.

And the TGI [31]?
Its TGI is greater than 100 µM.

What about the TGI [32] of the same compound?
The TGI was 60.1 µM.

And the TGI [33]?
Its TGI is greater than 100 µM.

What about the TGI [34] of the same compound?
The TGI was greater than 100 µM.

What about the TGI [35] of the same compound?
The TGI was greater than 100 µM.

And the TGI [36]?
Its TGI is greater than 100 µM.

And the TGI [37]?
Its TGI is greater than 100 µM.

What about the TGI [38] of the same compound?
Its TGI is greater than 100 µM.

What about the TGI [39] of the same compound?
The TGI was greater than 100 µM.

And the TGI [40]?
Its TGI is 75.5 µM.

What about the TGI [41] of the same compound?
Its TGI is 87.5 µM.

And the TGI [42]?
The TGI was greater than 100 µM.

What about the TGI [43] of the same compound?
The TGI was greater than 100 µM.

What about the TGI [44] of the same compound?
The TGI was greater than 100 µM.

And the TGI [45]?
Its TGI is greater than 100 µM.

And the TGI [46]?
The TGI was greater than 100 µM.

What about the TGI [47] of the same compound?
The TGI was 75.2 µM.

What about the TGI [48] of the same compound?
The TGI was greater than 100 µM.

What about the TGI [49] of the same compound?
The TGI was greater than 100 µM.

What about the TGI [50] of the same compound?
The TGI was greater than 100 µM.

And the TGI [51]?
Its TGI is 95.4 µM.

`Cc1c2cccc-2c(OCCOC(=O)n2ccnc2)cc2c1[nH]c1ccccc12` was tested. Which TGI [1] did it give?
The TGI was 6.24 µM.

What about the TGI [2] of the same compound?
The TGI was 5.22 µM.

What about the TGI [3] of the same compound?
The TGI was 5.89 µM.

What about the TGI [4] of the same compound?
The TGI was 4.18 µM.

What about the TGI [5] of the same compound?
The TGI was 5.48 µM.

And the TGI [52]?
The TGI was 17.8 µM.

And the TGI [6]?
Its TGI is 21 µM.

And the TGI [7]?
Its TGI is 5.95 µM.

And the TGI [8]?
Its TGI is 7.27 µM.

And the TGI [9]?
Its TGI is 5.8 µM.

And the TGI [10]?
The TGI was 8.15 µM.

And the TGI [53]?
Its TGI is 11 µM.

What about the TGI [11] of the same compound?
The TGI was 19.5 µM.

And the TGI [13]?
Its TGI is 9.06 µM.

What about the TGI [14] of the same compound?
The TGI was 25.2 µM.

What about the TGI [15] of the same compound?
Its TGI is 28.4 µM.

What about the TGI [16] of the same compound?
Its TGI is 10.5 µM.

And the TGI [17]?
The TGI was 5.97 µM.

And the TGI [19]?
Its TGI is 14.4 µM.

What about the TGI [20] of the same compound?
Its TGI is 17.5 µM.

What about the TGI [21] of the same compound?
Its TGI is 18.1 µM.

What about the TGI [22] of the same compound?
Its TGI is 3.86 µM.

What about the TGI [23] of the same compound?
The TGI was 9.69 µM.

And the TGI [24]?
The TGI was 12.1 µM.

And the TGI [25]?
The TGI was 7.51 µM.

What about the TGI [54] of the same compound?
The TGI was 5.22 µM.

What about the TGI [26] of the same compound?
The TGI was 3.39 µM.

And the TGI [27]?
Its TGI is 6.31 µM.

What about the TGI [28] of the same compound?
The TGI was greater than 100 µM.

What about the TGI [29] of the same compound?
Its TGI is 10.9 µM.

What about the TGI [30] of the same compound?
The TGI was 4.64 µM.

What about the TGI [55] of the same compound?
Its TGI is 19.9 µM.

And the TGI [31]?
The TGI was 7.61 µM.

And the TGI [33]?
The TGI was 14.4 µM.

What about the TGI [34] of the same compound?
Its TGI is 21.7 µM.

And the TGI [37]?
The TGI was 18.8 µM.

And the TGI [39]?
Its TGI is 10.3 µM.

And the TGI [56]?
The TGI was 5.63 µM.

And the TGI [40]?
The TGI was 3.48 µM.

And the TGI [57]?
The TGI was 5.68 µM.

What about the TGI [41] of the same compound?
The TGI was 4.28 µM.

And the TGI [42]?
The TGI was greater than 100 µM.

What about the TGI [43] of the same compound?
The TGI was 4.63 µM.

What about the TGI [44] of the same compound?
The TGI was 6.23 µM.

What about the TGI [45] of the same compound?
Its TGI is 22 µM.

And the TGI [46]?
Its TGI is 5.46 µM.

What about the TGI [47] of the same compound?
Its TGI is 4.66 µM.

And the TGI [58]?
The TGI was 3.02 µM.

What about the TGI [48] of the same compound?
Its TGI is 9.9 µM.

And the TGI [49]?
Its TGI is 4.65 µM.

And the TGI [50]?
The TGI was 6.63 µM.

What about the TGI [51] of the same compound?
The TGI was 8.13 µM.

Source: PubChem BioAssay (NCI)
